# Assays:
# P-gp1a [1] = biological target: T1, P-gp1a (Mus musculus, UniProt P21447); assay: Equilibrium (saturation) binding of [3H]vinblastine to LR73-1a plasma membranes, rapid filtration; settings: LR73-1a membranes, mean s.e.m.
# T1 construct: expressed in transfected cells; host or cells: Chinese hamster ovary LR73 cells (LR73-1a), plasma membrane fraction
# From the text: (§1) The two murine proteins share 84% amino acid identity, although the linker region which contains several sites for phosphorylation by protein kinase C (PKC) is the least conserved region between the two isoforms (Devault and Gros, 1990). […] P-gp1a is expressed at high levels in the intestine, liver and testis, and also in the lung and brain where it is thought to contribute to the blood-brain barrier (Schinkel et al, 1994). In contrast, P-gp1b is expressed in tissues associated with steroid biosynthesis and distribution, such as the adrenal gland and ovary, and is induced specifically in the uterus during pregnancy (Arceci et al, 1988; Trezise et al, 1992). The steroid hormone progesterone increases during pregnancy, and the mdr1b gene, but not the mdr1a gene, is regulated by a progesterone response element in its promoter (Piekarz et al, 1993). Direct evidence that the P-gp1b isoform can transport steroids comes from the observation that disruption of the mdr1b gene in mouse adrenal cells is associated with decreased adrenocorticotropic hormone-stimulated steroid secre- tion (Altuvia et al, 1993). […] More specifically, progesterone inhibits vinblastine binding and azidopine photolabelling of both of the mouse P-gp isoforms in vitro (Yang et al, 1990), showing that both isoforms are capable of interacting with steroids. […]
# P-gp1b [2] = biological target: T2, P-gp1b (Mus musculus, UniProt P06795); assay: Association kinetics of [3H]vinblastine binding to LR73-1b membranes
# T2 construct: expressed in transfected cells; host or cells: Chinese hamster ovary LR73 cells (LR73-1b), plasma membrane fraction
# T2 sequence (P06795 whole entry): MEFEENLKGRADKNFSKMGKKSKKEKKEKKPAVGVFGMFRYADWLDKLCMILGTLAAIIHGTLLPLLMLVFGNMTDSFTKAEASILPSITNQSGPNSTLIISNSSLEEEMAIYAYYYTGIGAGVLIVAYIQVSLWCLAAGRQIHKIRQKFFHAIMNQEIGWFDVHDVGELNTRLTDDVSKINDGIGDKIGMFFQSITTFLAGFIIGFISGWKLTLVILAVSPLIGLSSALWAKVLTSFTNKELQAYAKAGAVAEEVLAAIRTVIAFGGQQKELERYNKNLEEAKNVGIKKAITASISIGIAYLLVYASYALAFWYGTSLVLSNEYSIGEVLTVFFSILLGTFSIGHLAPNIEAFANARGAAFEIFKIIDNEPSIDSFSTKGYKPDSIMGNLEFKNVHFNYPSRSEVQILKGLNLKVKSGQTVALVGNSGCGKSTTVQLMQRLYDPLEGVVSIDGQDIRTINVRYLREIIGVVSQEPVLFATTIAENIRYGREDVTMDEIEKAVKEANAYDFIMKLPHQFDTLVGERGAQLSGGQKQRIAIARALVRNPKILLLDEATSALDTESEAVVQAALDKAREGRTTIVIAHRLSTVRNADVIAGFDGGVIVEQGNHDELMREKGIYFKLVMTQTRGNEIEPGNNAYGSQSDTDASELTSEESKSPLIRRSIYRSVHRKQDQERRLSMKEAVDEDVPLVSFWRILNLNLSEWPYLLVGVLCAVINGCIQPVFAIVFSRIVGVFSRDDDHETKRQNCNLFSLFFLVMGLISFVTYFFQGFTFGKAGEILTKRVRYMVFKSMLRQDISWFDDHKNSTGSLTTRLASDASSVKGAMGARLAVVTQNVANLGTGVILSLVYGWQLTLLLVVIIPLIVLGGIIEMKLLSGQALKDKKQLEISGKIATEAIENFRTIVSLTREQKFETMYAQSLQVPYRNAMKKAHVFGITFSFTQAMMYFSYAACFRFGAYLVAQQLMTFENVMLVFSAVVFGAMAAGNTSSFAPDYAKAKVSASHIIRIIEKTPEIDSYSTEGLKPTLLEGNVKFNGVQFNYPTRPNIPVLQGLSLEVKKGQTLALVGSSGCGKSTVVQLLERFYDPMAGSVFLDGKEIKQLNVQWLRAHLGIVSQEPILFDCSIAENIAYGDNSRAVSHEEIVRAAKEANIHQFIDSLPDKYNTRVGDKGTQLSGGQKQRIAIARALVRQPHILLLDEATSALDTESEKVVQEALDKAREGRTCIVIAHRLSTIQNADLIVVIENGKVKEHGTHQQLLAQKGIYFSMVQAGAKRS
# From the text: (§2) The two murine proteins share 84% amino acid identity, although the linker region which contains several sites for phosphorylation by protein kinase C (PKC) is the least conserved region between the two isoforms (Devault and Gros, 1990). […] P-gp1a is expressed at high levels in the intestine, liver and testis, and also in the lung and brain where it is thought to contribute to the blood-brain barrier (Schinkel et al, 1994). In contrast, P-gp1b is expressed in tissues associated with steroid biosynthesis and distribution, such as the adrenal gland and ovary, and is induced specifically in the uterus during pregnancy (Arceci et al, 1988; Trezise et al, 1992). The steroid hormone progesterone increases during pregnancy, and the mdr1b gene, but not the mdr1a gene, is regulated by a progesterone response element in its promoter (Piekarz et al, 1993). Direct evidence that the P-gp1b isoform can transport steroids comes from the observation that disruption of the mdr1b gene in mouse adrenal cells is associated with decreased adrenocorticotropic hormone-stimulated steroid secre- tion (Altuvia et al, 1993). […] More specifically, progesterone inhibits vinblastine binding and azidopine photolabelling of both of the mouse P-gp isoforms in vitro (Yang et al, 1990), showing that both isoforms are capable of interacting with steroids. However, if the distinct tissue-specific patterns of expression of P-gp1a and P-gp1b reflect differences in function related to steroid transport, it is important to show directly that the two proteins are functionally distinct. […] Summary The gene encoding the multidrug resistance P-glycoprotein (P-gp) is duplicated in rodent species and the functional basis for this remains unresolved. […] In the present study possible biochemical differences between the isoforms were directly investigated at the level of drug interaction. […]
# P-gp1b [3] = biological target: T2, P-gp1b; assay: Equilibrium (saturation) binding of [3H]vinblastine to LR73-1b plasma membranes, rapid filtration
# From the text: as §2
# P-gp1a [4] = biological target: T1, P-gp1a; assay: Association kinetics of [3H]vinblastine binding to LR73-1a membranes
# From the text: as §2
# [5] = [3H]vinblastine binding to LR73 membranes that do not express P-gp; set-up: species or system Chinese hamster; settings: data not shown
# From the text: as §1
# [6] = test system: Drug-resistant lines (LR73-1a, LR73-1b); assay: Maximal vinblastine resistance level of drug-resistant lines in culture; type: cell-based, Chinese hamster; settings: Cricetulus griseus, read-out: EC50, maximal resistance level of the cells
# From the text: as §1
# [7] = test system: drug-sensitive cells (LR73); assay: Vinblastine sensitivity of drug-sensitive cells in culture; type: cell-based, Chinese hamster; settings: Cricetulus griseus
# From the text: as §1
# P-gp [8] = assay: Binding of [3H]progesterone to P-gp; set-up: species or system mouse; settings: data not shown
# From the text: as §1
# P-gp [9] = assay: Sensitivity of [3H]vinblastine binding to DMSO; set-up: species or system mouse
# From the text: as §1
# P-gp1b [10] = biological target: T2, P-gp1b; assay: Displacement of equilibrium [3H]vinblastine binding, LR73-1b membranes
# From the text: as §1
# P-gp1a [11] = biological target: T1, P-gp1a; assay: Displacement of equilibrium [3H]vinblastine binding, LR73-1a membranes
# From the text: as §1
# T1 sequence (P21447 whole entry): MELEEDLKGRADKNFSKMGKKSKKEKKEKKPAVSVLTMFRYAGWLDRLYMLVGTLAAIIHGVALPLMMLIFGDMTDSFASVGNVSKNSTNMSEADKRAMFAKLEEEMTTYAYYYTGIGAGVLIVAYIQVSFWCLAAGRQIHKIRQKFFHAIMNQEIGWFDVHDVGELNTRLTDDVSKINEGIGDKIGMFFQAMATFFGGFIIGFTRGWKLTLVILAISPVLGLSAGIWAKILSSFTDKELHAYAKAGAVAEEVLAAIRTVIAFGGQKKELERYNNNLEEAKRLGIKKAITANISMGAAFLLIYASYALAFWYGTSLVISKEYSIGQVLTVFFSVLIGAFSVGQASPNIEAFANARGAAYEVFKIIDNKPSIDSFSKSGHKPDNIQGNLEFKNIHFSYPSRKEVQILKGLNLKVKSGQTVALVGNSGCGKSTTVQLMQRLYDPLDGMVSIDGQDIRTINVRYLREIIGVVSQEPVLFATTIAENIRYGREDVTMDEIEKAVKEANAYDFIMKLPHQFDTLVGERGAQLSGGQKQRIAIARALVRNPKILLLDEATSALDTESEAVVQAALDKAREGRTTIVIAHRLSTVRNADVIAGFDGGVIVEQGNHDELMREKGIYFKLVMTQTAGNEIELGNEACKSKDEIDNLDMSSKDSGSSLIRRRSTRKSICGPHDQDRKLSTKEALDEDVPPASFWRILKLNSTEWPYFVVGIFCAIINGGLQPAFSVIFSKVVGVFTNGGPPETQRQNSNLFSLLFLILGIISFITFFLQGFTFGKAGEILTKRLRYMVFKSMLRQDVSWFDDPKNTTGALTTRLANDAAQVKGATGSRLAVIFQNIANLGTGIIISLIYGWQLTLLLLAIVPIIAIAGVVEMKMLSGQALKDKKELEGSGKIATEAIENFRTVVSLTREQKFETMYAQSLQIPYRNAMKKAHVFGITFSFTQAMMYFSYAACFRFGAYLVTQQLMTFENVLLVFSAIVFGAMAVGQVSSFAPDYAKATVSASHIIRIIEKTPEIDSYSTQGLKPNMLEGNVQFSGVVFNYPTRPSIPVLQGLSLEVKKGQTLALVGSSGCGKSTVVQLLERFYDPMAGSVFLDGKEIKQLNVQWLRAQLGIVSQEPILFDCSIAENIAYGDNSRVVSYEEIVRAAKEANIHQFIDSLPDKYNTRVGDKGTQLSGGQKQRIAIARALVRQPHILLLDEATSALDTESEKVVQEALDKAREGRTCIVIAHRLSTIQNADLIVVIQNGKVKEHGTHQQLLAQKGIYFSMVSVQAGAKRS
compound,measurement,setting,value
CC[C@]1(O)C[C@@H]2CN(CCc3c([nH]c4ccccc34)[C@@](C(=O)OC)(c3cc4c(cc3OC)N(C)[C@H]3[C@@](O)(C(=O)OC)[C@H](OC(C)=O)[C@]5(CC)C=CCN6CC[C@]43[C@@H]65)C2)C1 [[3H]vinblastine],Kd,"P-gp1a [1]; equilibrium, read-out: Kd, affinity of [3H]vinblastine binding",32.9 nM
same,"Bmax, density of specific binding sites",P-gp1a [1],24.5 2.9 pmol mg-1
same,association rate constant (k+1),"P-gp1b [2]; LR73-1b membranes, 15-20 nM [3H]vinblastine",0.002 0.0006 min-1 nM-1
same,rate constant of [3H]vinblastine dissociation (k-1),"P-gp1b [2]; LR73-1b membranes, derived from Figure 3",0.11 0.02 min-1
same,Kd,"P-gp1b [2]; P-gp1b, read-out: Estimate of dissociation constant (Kd = k-1/k+1) using the kinetic data",55 nM
same,Bmax,"P-gp1b [3]; Figure 2, single representative experiment",8.6 1.4 pmol mg-1
same,Kd,"P-gp1b [3]; LR73-1b membranes, equilibrium, mean s.e.m., read-out: Kd, affinity of [3H]vinblastine binding",30.7 nM
same,"Bmax, density of specific binding sites","P-gp1b [3]; LR73-1b membranes, mean s.e.m.",14.1 2.9 pmol mg-1
same,association rate constant (k+1),"P-gp1a [4]; LR73-1a membranes, 15-20 nM [3H]vinblastine",0.002 0.0005 min-1 nM-1
same,rate constant of [3H]vinblastine dissociation (k-1),"P-gp1a [4]; LR73-1a membranes, derived from Figure 3",0.07 0.02 min-1
same,Kd,"P-gp1a [4]; P-gp1a, read-out: Estimate of dissociation constant (Kd = k-1/k+1) using the kinetic data",35 nM
same,specific binding,[5],did not bind specifically
"CC[C@]1(O)C[C@@H]2CN(CCc3c([nH]c4ccccc34)[C@@](C(=O)OC)(c3cc4c(cc3OC)N(C)[C@H]3[C@@](O)(C(=O)OC)[C@H](OC(C)=O)[C@]5(CC)C=CCN6CC[C@]43[C@@H]65)C2)C1 [vinblastine sulphate, Vinblastine sulphate]",EC50,[6],0.2 to 0.25 µg/mL
same,EC50,[7],0.01 µg/mL
CC(=O)[C@H]1CC[C@H]2[C@@H]3CCC4=CC(=O)CC[C@]4(C)[C@H]3CC[C@]12C [[3H]progesterone],binding characteristics to P-gp,P-gp [8],"poor affinity, low specific binding"
"C[S+](C)[O-] [DMSO, dimethylsulphoxide]",EC50 on [3H]vinblastine binding,P-gp [9],2.5 % (v/v)
CC(=O)[C@H]1CC[C@H]2[C@@H]3CCC4=CC(=O)CC[C@]4(C)[C@H]3CC[C@]12C [progesterone],Ki,P-gp1b [10],1800 nM
same,Ki,P-gp1a [11],1900 nM
